Data taken from patent publication US20150004134A1, “TREATMENT OF CANCER WITH HETEROCYCLIC INHIBITORS OF GLUTAMINASE” (Calithera Biosciences, Inc., priority 2012, published 2015).
Read-outs that look alike come from different tables or passages of the source.

System: P493-6 (myc "on") cells
Assay: Cell Proliferation Assay
Assay type: cell-based
Details: P493-6, 72 h
Outline: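 P493-6 cells with myc on, 10,000 per well in RPMI/10% FBS, exposed to serially diluted compound (0.5% DMSO final) for 72 h at 37 °C, 5% CO2. Antiproliferative effect read by Cell Titer Glo luminescence or Viacount FACS viability count.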

[1] = read-out: Cell prolif P493 72 h IC50, P493-6 cells, 72 h
[2] = read-out: Cell prolif P493 72 h IC50, P493 cells, 72 h

SMILES	IC50 [1] [nM]	IC50 [2] [nM]
COC(C(=O)Nc1nnc(CCCCc2ccc(NC(=O)Cc3cccc(CNC(=O)OC(C)(C)C)c3)nn2)s1)c1ccccc1 (stereo not shown) [Compound 509]	9	
O=C(Nc1nnc(CCCCc2nnc(NC(=O)C(CO)c3cccs3)s2)s1)C(CO)c1cccs1 (stereo not shown) [Compound 190]		490
O=C(Cc1ccccc1F)Nc1ccc(CCCCc2nnc(NC(=O)Cc3ccccc3F)s2)nn1 [Compound 534]	44	
COc1ccc(CC(=O)Nc2nnc(CCSCCc3nnc(NC(=O)Cc4ccc(OC)c(OC)c4)s3)s2)cc1OC [Compound 157]		180
N[C@@H](C(=O)Nc1nnc(CCCCc2nnc(NC(=O)[C@H](N)c3ccccc3)s2)s1)c1ccccc1 [Compound 186]		13000
Nc1ccc(CC(=O)Nc2nnc(CCSCCc3nnc(NC(=O)Cc4ccc(N)cc4)s3)s2)cc1 [Compound 195]		1300
CN(C)C(=O)Cc1cccc(CC(=O)Nc2nnc(CCCCc3ccc(NC(=O)Cc4ccccc4)nn3)s2)c1 [Compound 472]	24	
O=C(Nc1nnc(CCCc2nnc(NC(=O)C(O)c3ccccc3)s2)s1)C(O)c1ccccc1 (stereo not shown) [Compound 172]		3700
CC(=O)OCC(=O)Nc1nnc(CCSCCc2nnc(NC(=O)Cc3ccccc3)s2)s1 [Compound 26]		700
CC(=O)N[C@@H](C(=O)Nc1nnc(CCSCCc2nnc(NC(=O)[C@H](NC(C)=O)c3ccccc3)s2)s1)c1ccccc1 [Compound 128]		> 50000
CC(C)COC(=O)Nc1nnc(CCCCc2nnc(NC(=O)Cc3ccccc3)s2)s1 [Compound 370]		700
O=C(Cc1ccccc1)Nc1nnc(CCSCc2nnc(NC(=O)C(O)c3cccc(Cl)c3)s2)s1 (stereo not shown) [Compound 376]		91
CC(=O)NCC(C(=O)Nc1nnc(CCCCc2nnc(NC(=O)C(CNC(C)=O)c3ccccc3)s2)s1)c1ccccc1 (stereo not shown) [Compound 266]		> 50000
COc1cc(C(O)C(=O)Nc2nnc(CCCCc3nnc(NC(=O)C(O)c4ccc(O)c(OC)c4)s3)s2)ccc1O (stereo not shown) [Compound 319]		10000
COc1cc(CC(=O)Nc2nnc(CCCCc3ccc(NC(=O)Cc4ccccc4)nn3)s2)ccc1O [Compound 554]	172	
N[C@@H](C(=O)Nc1nnc(CCSCCc2nnc(NC(=O)[C@H](N)c3ccccc3)s2)s1)c1ccccc1 [Compound 47]		35000
O=C(Nc1nnc(CCCCc2nnc(NC(=O)C3Oc4ccccc4O3)s2)s1)C1Oc2ccccc2O1 [Compound 136]		4700
CCOC(=O)NCc1cccc(CC(=O)Nc2ccc(CCCCc3nnc(NC(=O)Cc4cccc(CNC(=O)OCC)c4)s3)nn2)c1 [Compound 572]	4	
O=C(Cc1ccccc1)Nc1ccc(CCCCc2nnc(NC(=O)Cc3cccc(OCCO)c3)s2)nn1 [Compound 427]	27	
Nc1ccc(CC(=O)Nc2nnc(CCCCc3nnc(NC(=O)Cc4ccc(N)cc4)s3)s2)cc1 [Compound 196]		610
O=C(Cc1ccccc1)Nc1nnc(CCCCc2nnc(NC(=O)OCc3ccccc3)s2)s1 [Compound 374]		470
O=C(Cc1ccccc1)Nc1nnc(CCCCc2nnc(NC(=O)Cc3ccccc3)s2)s1 [Compound 21, N,N′-[5,5′-(butane-1,4-diyl)-bis(1,3,4-thiadiazole-5,2-diyl)]-bis(2-phenylacetamide)]		20
CC(N)c1cccc(CC(=O)Nc2ccc(CCCCc3nnc(NC(=O)Cc4ccccc4)s3)nn2)c1 (stereo not shown) [Compound 560]	37	
CC(C)(C)OC(=O)N1CCN(Cc2cccc(CC(=O)Nc3nnc(CCSCc4nnc(NC(=O)Cc5cccc(CN6CCN(C(=O)OC(C)(C)C)CC6)c5)s4)s3)c2)CC1 [Compound 275]		340
O=C(CC1CCNCC1)Nc1nnc(CCSCCc2nnc(NC(=O)CC3CCNCC3)s2)s1 [Compound 129]		> 50000
COc1ccccc1C(C)C(=O)Nc1nnc(CCSCCc2nnc(NC(=O)C(C)c3ccccc3OC)s2)s1 (stereo not shown) [Compound 263]		3900
O=C(Nc1nnc(CCSCCc2nnc(NC(=O)[C@H](O)c3ccccc3)s2)s1)[C@H](O)c1ccccc1 [Compound 81]		7600
COCCC(=O)Nc1nnc(CCSCCc2nnc(NC(=O)CCOC)s2)s1 [Compound 101]		17000
